Measured values as given in patent publication US5965744A, “Ortho-substituted benzoylguanidines, including composition and methods of using them” (priority 1993, dated 1999).
Counter-ions that a name gives are not always drawn.

Columns and labels:
[1] = biological target: T1, Na^+ /H^+ Exchanger of Rabbit Erythrocytes (Oryctolagus cuniculus, UniProt P23791); assay: Inhibition of the Na^+ /H^+ Exchanger of Rabbit Erythrocytes (Na^+ influx by flame photometry); type: cell-based, rabbit (New Zealand White); settings: cholesterol-fed rabbits, pH 7.4, 37° C.
T1 construct: The blood was removed from the aural arteries; endogenous in cells; host or cells: erythrocytes of cholesterol-fed New Zealand White rabbits (whole blood samples)
T1 sequence (P23791 whole entry): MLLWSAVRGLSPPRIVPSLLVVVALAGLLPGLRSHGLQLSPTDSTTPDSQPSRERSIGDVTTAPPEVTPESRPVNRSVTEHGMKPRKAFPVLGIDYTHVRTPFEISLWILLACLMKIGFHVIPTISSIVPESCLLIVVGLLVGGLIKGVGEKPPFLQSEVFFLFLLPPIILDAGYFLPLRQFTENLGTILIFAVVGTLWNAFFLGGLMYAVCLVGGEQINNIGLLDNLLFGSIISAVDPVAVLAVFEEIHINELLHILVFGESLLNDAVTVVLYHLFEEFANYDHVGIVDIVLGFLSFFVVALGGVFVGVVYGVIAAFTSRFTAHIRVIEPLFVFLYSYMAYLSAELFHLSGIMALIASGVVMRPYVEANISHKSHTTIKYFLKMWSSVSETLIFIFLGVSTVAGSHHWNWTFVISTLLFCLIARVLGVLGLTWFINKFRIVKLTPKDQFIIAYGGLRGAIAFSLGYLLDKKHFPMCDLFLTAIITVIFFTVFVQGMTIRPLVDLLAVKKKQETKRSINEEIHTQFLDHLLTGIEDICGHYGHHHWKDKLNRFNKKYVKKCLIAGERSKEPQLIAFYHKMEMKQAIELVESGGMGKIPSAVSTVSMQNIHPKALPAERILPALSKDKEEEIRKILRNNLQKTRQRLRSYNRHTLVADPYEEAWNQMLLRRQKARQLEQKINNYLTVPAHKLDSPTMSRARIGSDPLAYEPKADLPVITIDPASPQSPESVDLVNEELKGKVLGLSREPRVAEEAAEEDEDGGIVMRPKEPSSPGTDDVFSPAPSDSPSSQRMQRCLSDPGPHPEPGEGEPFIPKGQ
Source text: Inhibition of the Na^+ /H^+ Exchanger of Rabbit Erythrocytes
New Zealand White rabbits (Ivanovas) received a standard diet containing 2% cholesterol for six weeks in order to activate the Na^+ /H^+ exchange and thus to be able to determine, by flame photometry, the Na^+ influx into the erythrocytes via Na^+ /H^+ exchange. The blood was removed from the aural arteries and rendered incoagulable using 25 IU of potassium heparin. A part of each sample was used for the duplicate determination of the hematocrit by means of centrifugation. Aliquots of in each case 100 μl were used for measuring the initial Na^+ content of the erythrocytes.
In order to determine the amiloride-sensitive sodium influx, 100 μl of each blood sample were in each case incubated, at pH 7.4 and 37° C., in 5 ml of a hyperosmolar salt/sucrose medium (mmol/l: 140 NaCl, 3 KCl, 150 sucrose, 0.1 ouabain, 20 tris(hydroxymethyl)aminomethane). The erythrocytes were then washed three times with ice-cold MgCl2 /ouabain solution ([…]: 112 MgCl2, 0.1 ouabain) and hemolyzed in 2.0 ml of distilled water. The intracellular sodium content was determined by flame photometry.
The net influx of Na^+ was calculated from the difference between the initial sodium values and the sodium content of the erythrocytes following incubation. The amiloride-inhibitable sodium influx was calculated from the difference in the sodium content of the erythrocytes following incubation with and without amiloride 3×10^-4 mol/l. This method was also employed in the case of the compounds according to the invention.

cardiac arrhythmia = settings: cited from earlier work
rat hearts = settings: isolated rat hearts, cited from earlier work

Structure (SMILES) | IC50 [1] | other results
N=C(N)NC(=O)c1cccc(C(F)(F)F)c1F [Example 2, 2-Fluoro-3-trifluoromethylbenzoylguanidine hydrochloride] | 2000 nM | 
N=C(N)NC(=O)c1cc(C(F)(F)F)ccc1C(F)(F)F [Example 7, 2,5-Bis(trifluoromethyl)benzoylguanidine hydrochloride] | 160 nM | 
N=C(N)NC(=O)c1cc(I)cc(C(F)(F)F)c1F [Example 10, 2-Fluoro-5-iodo-3-trifluoromethylbenzoylguanidine hydrochloride] | 90 nM | 
N=C(N)NC(=O)c1nc(Cl)c(N)nc1N [amiloride, Amiloride] |  | undesirable side effects when treating cardiac arrhythmia (cardiac arrhythmia; accompanying the antiarrhythmic effect): hypotensive and saluretic effects; antiarrhythmic effect (cardiac arrhythmia; as antiarrhythmic agent): only weakly expressed; suppression of artificially induced ventricular fibrillation (rat hearts): completely suppress
CCN(c1nc(N)c(C(=O)NC(=N)N)nc1Cl)C(C)C [ethylisopropylamiloride, Ethylisopropylamiloride] |  | potency relative to amiloride in ventricular fibrillation model (rat hearts; compared with amiloride): even more potent than amiloride

Continued, in another order:

IC50 [1] | Structure (SMILES) | other results
> 1000 nM | N=C(N)NC(=O)c1cccc(Cl)c1Cl [Example 1, 2,3-Dichlorobenzoylguanidine hydrochloride] | 
8000 nM | N=C(N)NC(=O)c1ccc(Cl)cc1Cl [Example 3, 2,4-Dichlorobenzoylguanidine hydrochloride] | 
3000 nM | N=C(N)NC(=O)c1ccc(C(F)(F)F)cc1F [Example 4, 2-Fluoro-4-trifluoromethylbenzoylguanidine hydrochloride] | 
2000 nM | Cc1ccc(C)c(C(=O)NC(=N)N)c1 [Example 5, 2,5-Dimethylbenzoylguanidine hydrochloride] | 
1500 nM | N=C(N)NC(=O)c1cc(Cl)ccc1Cl [Example 6, 2,5-Dichlorobenzoylguanidine hydrochloride] | 
700 nM | N=C(N)NC(=O)c1cc(C(F)(F)F)ccc1F [Example 8, 2-Fluoro-5-trifluoromethylbenzoylguanidine hydrochloride] | 
160 nM | N=C(N)NC(=O)c1cc(C(F)(F)F)ccc1Cl [Example 9, 2-Chloro-5-trifluoromethylbenzoylguanidine hydrochloride] | 
